Measurements published in article PMC10283505, “CVM-1118 (foslinanib), a 2-phenyl-4-quinolone derivative, promotes apoptosis and inhibits vasculogenic mimicry via targeting TRAP1” (Pathology and Oncology Research, 2023).

Columns and labels:
Smad2/P-Smad2 = test: Western blot of P-Smad2/Smad2; assay type: cell-based, human; settings: C8161, 10 nM, 24 h, relative to β-actin, against control
Protocol: Cells at 80% confluence were rinsed with PBS, harvested by scrapping into a modified RIPA buffer plus protease inhibitor cocktail using 100 μL buffer per 1 × 10^6 cells. After sonication and centrifugation, the protein concentrations in the supernatants were determined using a BCA assay (Thermo Fisher Scientific). […] Nodal was detected using a mouse monoclonal anti-Nodal antibody (sc-373910; Santa Cruz; 1 μg/ml in 20 mM Tris/150 mM NaCl/0.1% [w/v] Tween 20, pH 7.4 [TBST] plus 5% BSA) followed by an anti-mouse plus horseradish peroxidase (HRP) secondary antibody (NXA931; GE Healthcare; 1 μg/ml in TBST plus 5% BSA) and enhanced chemiluminescence (ECL; GE Healthcare). Smad2 was detected using a rabbit polyclonal anti-Smad2/3 antibody (07-408; Millipore; 1 μg/ml in TBST plus 5% BSA) followed by an anti-rabbit plus HRP secondary antibody (NA934V; GE Healthcare; 1 μg/ml in TBST plus 5% BSA) and ECL. […] To assess relative changes in protein expression, the exposed films were digitized using a ChemiDoc XRS imager (Bio-Rad Laboratories) and the relative amount of protein determined against the untreated control cells normalized to a value of 1.0 using the imager’s Quantity One software package (Bio-Rad Laboratories) and corrected for loading of protein into each lane against the β-actin protein measured in the control lane.

Catenin β-1 = target: T1, Catenin β-1 (Homo sapiens, UniProt P35222); test: Surface plasmon resonance (Biacore); assay type: binding; settings: Catenin β-1, SPR
T1 sequence (P35222 1-781): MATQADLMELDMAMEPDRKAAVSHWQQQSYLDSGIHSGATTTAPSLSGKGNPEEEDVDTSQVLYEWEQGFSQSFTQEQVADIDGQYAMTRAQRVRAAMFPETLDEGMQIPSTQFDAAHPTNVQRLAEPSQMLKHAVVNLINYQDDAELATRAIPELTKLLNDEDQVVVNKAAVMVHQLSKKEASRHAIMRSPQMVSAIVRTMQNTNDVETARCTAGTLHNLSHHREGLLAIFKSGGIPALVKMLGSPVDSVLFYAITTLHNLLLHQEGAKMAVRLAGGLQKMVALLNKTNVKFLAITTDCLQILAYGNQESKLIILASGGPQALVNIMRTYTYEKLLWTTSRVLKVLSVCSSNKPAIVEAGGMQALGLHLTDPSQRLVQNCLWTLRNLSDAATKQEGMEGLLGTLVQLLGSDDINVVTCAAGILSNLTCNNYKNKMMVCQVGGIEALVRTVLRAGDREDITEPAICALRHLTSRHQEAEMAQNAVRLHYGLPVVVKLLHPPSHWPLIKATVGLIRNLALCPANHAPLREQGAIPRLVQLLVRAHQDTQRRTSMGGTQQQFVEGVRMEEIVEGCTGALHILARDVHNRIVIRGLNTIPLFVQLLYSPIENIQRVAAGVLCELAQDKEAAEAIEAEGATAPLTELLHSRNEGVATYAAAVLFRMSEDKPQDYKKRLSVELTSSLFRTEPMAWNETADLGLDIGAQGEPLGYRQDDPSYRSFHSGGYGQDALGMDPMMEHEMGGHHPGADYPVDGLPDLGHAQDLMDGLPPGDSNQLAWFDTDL

SF-539 = test: NCI 60 cytotoxicity screening; assay type: cell-based; settings: Homo sapiens; SF-539, CNS
NCI/ADR-RES = test: NCI 60 cytotoxicity screening; assay type: cell-based; settings: Homo sapiens, Ovarian

| Compound | reduction in the ratio of P-Smad2 to Smad2 protein level (Smad2/P-Smad2) | Association (ka) (Catenin β-1) | Dissociation (kd) (Catenin β-1) | KD (kd/ka) (Catenin β-1) | GI50 (SF-539) | GI50 (NCI/ADR-RES) |
| --- | --- | --- | --- | --- | --- | --- |
| COc1ccc2[nH]c(-c3cccc(F)c3)cc(=O)c2c1OP(=O)(O)O [CVM-1118] | 76% |  |  |  |  |  |
| COc1ccc2[nH]c(-c3cccc(F)c3)cc(=O)c2c1O [CVM-1125] |  | No interaction | No interaction | No interaction | 26.2 nM | 20.8 nM |
